The record followed here is patent US20090298825A1, “Bicycloheteroaryl Compounds as P2x7 Modulators and Uses Thereof” (priority 2006, published 2009).

For orientation: IC50 means the concentration that inhibits the measured activity by half.

The target of this assay is T1, P2X7 receptor (Homo sapiens, UniProt Q99572).
T1 construct: endogenous in cells; host or cells: THP-1 cells differentiated with LPS and IFN-γ
T1 sequence (Q99572 1-595): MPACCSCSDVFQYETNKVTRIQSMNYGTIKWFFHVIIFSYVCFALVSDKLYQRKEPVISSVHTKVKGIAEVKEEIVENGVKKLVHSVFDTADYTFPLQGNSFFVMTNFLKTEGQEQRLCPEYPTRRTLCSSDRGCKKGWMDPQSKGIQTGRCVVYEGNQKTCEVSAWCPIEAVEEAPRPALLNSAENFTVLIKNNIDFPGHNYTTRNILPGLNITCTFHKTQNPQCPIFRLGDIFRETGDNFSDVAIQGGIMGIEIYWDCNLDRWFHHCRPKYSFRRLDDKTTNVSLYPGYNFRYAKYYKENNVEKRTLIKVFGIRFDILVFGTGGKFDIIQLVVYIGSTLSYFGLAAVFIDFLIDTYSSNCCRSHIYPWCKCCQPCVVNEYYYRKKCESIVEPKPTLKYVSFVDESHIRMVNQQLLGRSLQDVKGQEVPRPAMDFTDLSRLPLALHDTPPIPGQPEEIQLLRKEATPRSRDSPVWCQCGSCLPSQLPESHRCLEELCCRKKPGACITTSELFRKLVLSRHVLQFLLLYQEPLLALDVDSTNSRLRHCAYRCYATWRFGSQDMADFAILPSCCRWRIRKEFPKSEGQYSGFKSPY
In words: IL-1β release assay in differentiated THP-1 cells stimulated with BzATP (Example 9). It is filed as cell-based. The settings on record: for inhibition at 0.3 µM: 0.3 μM concentration; for inhibition at 0.3 µM / inhibition at 0.1 µM: read-out: IL-1β % Inhib. @ 0.3 or 0.1 μM; for IC50: four parameter logistic fit, read-out: IL-1β IC50; for inhibition at 0.1 µM: 0.1 μM concentration. As to the method: The cells are then pretreated for 30 minutes with the compound of interest at the appropriate concentration in RPMI media containing 100 IU/mL penicillin, 100 ug/mL streptomycin. […] 30 uL of cell supernatant is then collected and IL-1β levels determined via ELISA (R&D systems Cat. # HSLB50) according to manufacturer's recommendations using the Tecan Safire plate reader. Background adjusted IL-1β levels of drug treated and non-treated cells are used to calculate the percent inhibition.
The compounds set forth in Table 1 were tested for activity in a cellular model as described herein. […] Measurements were made and IC50 values, presented in Table 2, below, were determined by fitting the data to a four parameter logistic equation using GraphPad Prism software (GraphPad Software, Inc). The equation may be expressed by the following formula:
Y=Bottom+(Top-Bottom)/(1+10̂((Log EC50−X)*HillSlope))
Where X is the logarithm of concentration, Y is the response and Y starts at Bottom and goes to Top with a sigmoid shape.

As to `O=C(CC12CC3CC(CC(C3)C1)C2)Nc1cccc2c(=O)n(-c3ccc(Oc4ccc(Br)cc4)nc3)ccc12` [ID 704], the inhibition at 0.3 µM is above 76% and the IC50 is 0.322 nM.

In the case of `Cc1ncccc1-n1ccc2c(NC(=O)Cc3cccc(C(F)(F)F)c3F)cccc2c1=O` [ID 854], the inhibition at 0.3 µM was above 76% and the IC50 amounted to 27.1 nM. In the case of `CCOC(=O)N1CCC(n2ccc3c(NC(=O)c4ccc(-c5ccccc5)o4)cccc3c2=O)CC1` [ID 752], the inhibition at 0.1 µM was 0 to 25%. On to `CC(C(=O)Nc1cccc2c(=O)n(-c3n[nH]cc3C#N)ccc12)c1ccc(Cl)c(C(F)(F)F)c1` (stereo not drawn) [ID 840], for which the inhibition at 0.3 µM is above 76% and the IC50 amounted to 37.6 nM.

For the molecule `CCOC(=O)N1CCC(n2ccc3c(NC(=O)c4ccc(Cl)cc4Cl)cccc3c2=O)CC1` [ID 762], the inhibition at 0.1 µM was 0 to 25%. With `O=C(CC12CC3CC(CC(C3)C1)C2)Nc1cccc2c(=O)n(-c3ccc(Oc4ccccc4)nc3)ccc12` [ID 711], the inhibition at 0.3 µM was above 76% and the half-inhibitory concentration (IC50) is 0.723 nM. Regarding `CCOC(=O)N1CCC(n2ccc3c(NC(=O)c4ccc(C(C)(C)C)cc4)cccc3c2=O)CC1` [ID 773], the inhibition at 0.1 µM lay in the range of 26 to 50%.

As for `CCOC(=O)N1CCC(n2ccc3c(NC(=O)Cc4cc(C)cc(C)c4)cccc3c2=O)CC1` [ID 802], the inhibition at 0.1 µM fell in the range of 0 to 25%. Same read-out and setting: the same measure for `CCOC(=O)N1CCC(n2ccc3c(NC(=O)Cc4ccc(OC)c(OC)c4)cccc3c2=O)CC1` [ID 783]: 0 to 25%. `O=C(Cc1ccc(C(F)(F)F)c(F)c1)Nc1cccc2c(=O)n(C3CC3)ccc12` [ID 879]: the inhibition at 0.3 µM was above 76% and the IC50 was 6.79 nM. For the molecule `O=C(Cc1ccc(Cl)c(Cl)c1)Nc1cccc2c(=O)n(C3CC3)ccc12` [ID 876], the inhibition at 0.3 µM was above 76% and the IC50 stood at 15 nM. Regarding `CCOC(=O)N1CCC(n2ccc3c(NC(=O)Cc4ccccc4C)cccc3c2=O)CC1` [ID 781], the inhibition at 0.1 µM fell in the range of 0 to 25%. The same measure, in the same setting: as for `CCOC(=O)N1CCC(n2ccc3c(NC(=O)c4cccc(Cl)c4C)cccc3c2=O)CC1` [ID 801], the figure is 0 to 25%. In the case of `CC(C(=O)Nc1cccc2c(=O)n([C@@H]3CCNC3)ccc12)c1ccc(Cl)cc1` (stereo partly drawn) [ID 835], the inhibition at 0.3 µM was in the range of 51 to 75% and the IC50 came out at 151 nM.

As for `CCOC(=O)N1CCC(n2ccc3c(NC(=O)Cc4c(C)cc(C)cc4C)cccc3c2=O)CC1` [ID 754], the inhibition at 0.1 µM was in the range of 0 to 25%. `O=C(CC12CC3CC(CC(C3)C1)C2)Nc1cccc2c(=O)n(-c3cnc4ccccc4c3)ccc12` [ID 706]: the inhibition at 0.3 µM is above 76% and the IC50 was 58 nM.

In the case of `O=C(CC1CCCCCC1)Nc1cccc2c(=O)n(-c3cc[nH]n3)ccc12` [ID 844], the inhibition at 0.3 µM was above 76% and the IC50 turned out to be 3.33 nM. The like results for `O=C(Cc1cccc(C(F)(F)F)c1F)Nc1cccc2c(=O)n(C3CN4CCC3CC4)ccc12` (stereo not drawn) [ID 845] were, in that order, above 76% and 134 nM. For the molecule `Cc1cccc(CC(=O)Nc2cccc3c(=O)n(-c4cc(C)on4)ccc23)c1` [ID 731], the inhibition at 0.1 µM is 0 to 25%. Same read-out and setting: the same measure for `CCOC(=O)N1CCC(n2ccc3c(NC(=O)c4ccc(OCC)cc4)cccc3c2=O)CC1` [ID 771]: 0 to 25%; for `CCOC(=O)N1CCC(n2ccc3c(NC(=O)Cc4ccccc4Cl)cccc3c2=O)CC1` [ID 778]: 0 to 25%. The same measure, in the same setting: the same measure for `Cc1cc(C)cc(CC(=O)Nc2cccc3c(=O)n(-c4cc(C)on4)ccc23)c1` [ID 737]: 0 to 25%.

Turning to `O=C(CC12CC3CC(CC(C3)C1)C2)Nc1cccc2c(=O)n(-c3ccc(Sc4cc(Cl)ccc4Cl)nc3)ccc12` [ID 707], the inhibition at 0.3 µM is above 76% and the IC50 turned out to be 1.63 nM. For `CCOC(=O)N1CCC(n2ccc3c(NC(=O)C4C[C@@H]5CC[C@H]4C5)cccc3c2=O)CC1` (stereo partly drawn) [ID 803], the inhibition at 0.1 µM fell in the range of 0 to 25%.

Take `CCOC(=O)N1CCC(n2ccc3c(NC(=O)CCc4ccccc4OC)cccc3c2=O)CC1` [ID 775]: the inhibition at 0.1 µM lay in the range of 0 to 25%.
